{
  "source": "patent US4766114A",
  "about": "“Tricyclic compound called 5-((3-chloro-6-methyl-5,5-dioxo-6,11-dihydro-dibenzo (c,f) (1,2)thiazepin-11-yl)-amino) pentanoic acid” (ADIR Et Compagnie, priority 1986, dated 1988)",
  "key": {"[1]": {"tested_on": "aggressivity of isolated mice", "test": "Effects on the aggressivity of isolated mice", "format": "in vivo, mouse (male CD)", "conditions": "for % OF PROTECTED COUPLES (no attack) / MEAN NUMBER OF ATTACKS ± SD: 30 minutes before test; for % OF PROTECTED COUPLES (no attack): 10 couples; for MEAN NUMBER OF ATTACKS ± SD: 3 minute test", "method": "The male CD mice (Charles RIVER) used in this study were housed in small (18×10×10 cm) individual cages with the walls painted black, with one mouse per cage, for several months, at a constant temperature of 21° C. and in a light-darkness cycle of 12 hours. The average weight of the mice at the time of the study was 45 g.\nEach experimental group comprised 10 couples of mice previously selected for their aggressivity. The aggressivity test was carried out on non-fasting animals. The \"intruding\" mouse of each couple was placed in the cage containing the other mouse for a 3 minute period.\nThe product was administered by the intraperitoneal route, 30 minutes before the test."}, "[2]": {"tested_on": "antidepressant activity", "conditions": "French Pat. No. 71.32197; cited from earlier work"}, "[3]": {"tested_on": "reserpine-induced ptosis in the mouse", "test": "Effects on reserpine-induced ptosis in the mouse", "format": "in vivo, mouse (male NMRI)", "conditions": "25 mg.kg^-1 IP, reserpine 2 mg.kg^-1 IV", "method": "This experiment was carried out on groups of 20 male NMRI mice (IFFA-CREDO), with an average weight of 20±2 g. […] GOURET et al., in J. Pharmacol., 1977, 8, (3) p. 333-350.\nOne hour after the injection of the reserpine, the animals were placed on a 5 cm×5 cm square, wood platform for 20 seconds. Ptosis was considered to be positive if the animal's eyes remained shut during the 20 seconds after it was placed on the platform. On the other hand, the animal was considered to be protected if the eyes were not completely closed during the 20 seconds following the moment when it was placed on the platform."}, "[4]": {"tested_on": "reserpine-induced hypothermia in the mouse", "test": "Effects on reserpine-induced hypothermia in the mouse", "format": "in vivo, mouse (NMRI)", "conditions": "50 mg.kg^-1 IP", "method": "This study was carried out on experimental groups of 10 NMRI mice (IFFA-CREDO) fasted for 18 hours. […] One hour later, all the animals were given an intraperitoneal injection of 2 mg.kg^-1 of reserpine. Hypothermia was evaluated 4 hours after the injection of reserpine by measuring the rectal temperature using an electric thermometer."}, "[5]": {"tested_on": "tetrabenazine-induced ptosis in the mouse", "test": "Effects on tetrabenazine-induced ptosis in the mouse", "format": "in vivo, mouse (male CD)", "method": "Male CD mice (Charles River), of average weight 23 g, were distributed in groups of 12 animals. […] The dose of products tested was 25 mg.kg^-1. The animals were observed individually 5, 25, 35 and 55 minutes after the injection of the tetrabenazine and the intensity of the ptosis was evaluated using a 0 to 4 rating scale."}, "[6]": {"tested_on": "antidepressant activity", "test": "Antidepressant activity (standard pharmacological tests)", "format": "in vivo", "from_the_text": "The standard pharmacological tests used to evaluate the antidepressant activity of new chemical compounds, described, in particular, in Enna S. J. et al. \"Antidepressants: Neurochemical Behavioral, and Clinical Perspectives\" Raven Press N.Y. 1981, p."}, "[7]": {"conditions": "20 mg.kg^-1 IP, controls 0%, S = statistically significant change"}},
  "note": "Read-outs that look alike come from different tables or passages of the source.",
  "data": [
    {"smiles": "CN1c2ccccc2C(NCCCCCCC(=O)O)c2ccc(Cl)cc2S1(=O)=O", "note": "(stereo not shown) [TAHA, 7-[(3-chloro-6-methyl-5,5-dioxo-6,11-dihydro-dibenzo(c,f)(1,2)thiazepin-11-yl)-amino]heptanoic acid, reference compound]", "values": [
      {"measurement": "% OF PROTECTED COUPLES (no attack)", "setting": "[1]; 10 mg.kg^-1 IP, controls 10%", "value": 10, "unit": "%"},
      {"measurement": "anti-aggressive effect (in words)", "setting": "[1]; 20 mg.kg^-1 IP", "value": "clear anti-aggressive effect"},
      {"measurement": "% OF PROTECTED COUPLES (no attack)", "setting": "[1]; [7]", "value": 40, "unit": "%"},
      {"measurement": "MEAN NUMBER OF ATTACKS ± SD", "setting": "[1]; 20 mg.kg^-1 IP, water controls 8.3 ± 6.0", "value": "3.7 ± 4.9"},
      {"measurement": "antidepressant properties (in words)", "setting": "[2]", "value": "antidepressant properties"}
    ]},
    {"smiles": "CN1c2ccccc2C(NCCCCC(=O)O)c2ccc(Cl)cc2S1(=O)=O", "note": "(stereo not shown) [compound of the formula I, 5-[(3-chloro-6-methyl-5,5-dioxo-6,11-dihydro-dibenzo(c,f)(1,2)thiazepin-11-yl)-amino]pentanoic acid]", "values": [
      {"measurement": "antagonism of reserpine-induced ptosis (in words)", "setting": "[3]", "value": "much more active"},
      {"measurement": "animals protected from ptosis", "setting": "[3]; 20 male NMRI mice per group", "value": 53, "unit": "%"},
      {"measurement": "antagonism of reserpine-induced hypothermia (in words)", "setting": "[4]", "value": "much higher"},
      {"measurement": "FINAL TEMPERATURES MEAN ± SD", "setting": "[4]; rectal temperature 4 hours after reserpine 2 mg.kg^-1 IP, controls 24.7 ± 0.88", "value": "30.9 ± 3.7"},
      {"measurement": "activity against tetrabenazine-induced ptosis compared with TAHA (in words)", "setting": "[5]; 25 mg.kg^-1 IP", "value": "much greater and long-lasting activity than TAHA"},
      {"measurement": "% controls (% change of the mean ptosis scores in comparison with the controls), 5 MINUTES", "setting": "[5]; 25 mg.kg^-1 IP, 5 minutes after tetrabenazine 20 mg.kg^-1", "value": -69, "unit": "%"},
      {"measurement": "MEAN VALUE OF THE PTOSIS INTENSITY SCORE ± SD, 5 MINUTES", "setting": "[5]; 25 mg.kg^-1 IP, 5 minutes after tetrabenazine 20 mg.kg^-1, 0 to 4 scale, controls 1.33 ± 0.65", "value": "0.42 ± 0.51"},
      {"measurement": "% controls (% change of the mean ptosis scores in comparison with the controls), 25 MINUTES", "setting": "[5]; 25 mg.kg^-1 IP, 25 minutes after tetrabenazine 20 mg.kg^-1", "value": -32, "unit": "%"},
      {"measurement": "% controls (% change of the mean ptosis scores in comparison with the controls), 35 MINUTES", "setting": "[5]; 25 mg.kg^-1 IP, 35 minutes after tetrabenazine 20 mg.kg^-1", "value": -35, "unit": "%"},
      {"measurement": "MEAN VALUE OF THE PTOSIS INTENSITY SCORE ± SD, 35 MINUTES", "setting": "[5]; 25 mg.kg^-1 IP, 35 minutes after tetrabenazine 20 mg.kg^-1, 0 to 4 scale, controls 2.83 ± 0.58", "value": "1.83 ± 0.39"},
      {"measurement": "MEAN VALUE OF THE PTOSIS INTENSITY SCORE ± SD, 55 MINUTES", "setting": "[5]; 25 mg.kg^-1 IP, 55 minutes after tetrabenazine 20 mg.kg^-1, 0 to 4 scale, controls 3.08 ± 0.51", "value": "2.42 ± 0.67"},
      {"measurement": "% controls (% change of the mean ptosis scores in comparison with the controls), 55 MINUTES", "setting": "[5]; 25 mg.kg^-1 IP, 55 minutes after tetrabenazine 20 mg.kg^-1, NS = Non significant", "value": -22, "unit": "%"},
      {"measurement": "MEAN VALUE OF THE PTOSIS INTENSITY SCORE ± SD, 25 MINUTES", "setting": "[5]; mouse, in vivo, ip", "value": "1.75 ± 0.45"},
      {"measurement": "% OF PROTECTED COUPLES (no attack)", "setting": "[1]; 10 mg.kg^-1 IP, controls 10%", "value": 20, "unit": "%"},
      {"measurement": "MEAN NUMBER OF ATTACKS ± SD", "setting": "[1]; 10 mg.kg^-1 IP, water controls 6.7 ± 4.7 (ATAH), 5.4 ± 2.8 (formula I)", "value": "7.2 ± 5.9"},
      {"measurement": "anti-aggressive effect (in words)", "setting": "[1]; 20 mg.kg^-1 IP", "value": "clear anti-aggressive effect"},
      {"measurement": "% OF PROTECTED COUPLES (no attack)", "setting": "[1]; [7]", "value": 60, "unit": "%"},
      {"measurement": "anti-aggressive activity compared with TAHA (in words)", "setting": "[1]; isolated mice, IP", "value": "much greater than that of TAHA"},
      {"measurement": "antidepressant activity (in words)", "setting": "[6]", "value": "much greater antidepressant activity"},
      {"measurement": "antidepressant activity (in words)", "setting": "[6]; listed as 5-[(3-chloro-6-methyl-5,5-dioxo-6,11-dihydrodibenzo(c,f)(1,2)thiazepin-11-yl)-a", "value": "very potent antidepressant activity"}
    ]}
  ]
}
